Measured values from PMC4841536, “Characterization of the Anti-HCV Activities of the New Cyclophilin Inhibitor STG-175” (PLoS ONE, 2016).
Read-outs that look alike come from different tables or passages of the source.

Key:
[1] = tested on: subgenomic Con1 (GT1b) replicon in Huh-7 cells; type: cell-based, hepatitis C virus; details: for passages until development of HCV resistance, DAA alone ("instead of" comparison): compared with combination
Method: Huh-7 cell expressing subgenomic Con1 (GT1b) replicon were seeded in a 10 cm dish at a density of 3 × 10^5 cells per culture flask in complete DMEM (with G418) with STG-175 or selected drugs. Cells were grown until they reached 90% confluence, trypsinized and re-seeded at the same cell concentration in a new 10-cm dish with the same drug concentration. Cells were passaged 22 times in the presence of drugs. At each passage, sample of cells were collected, RNA extracted according to the manufacturer's instructions and analyzed by RT-PCR for HCV RNA levels.
(§1) Fig 3 Replicon clearance, replication rebound and resistance analyses. […] Then drugs were removed to allow viral replication rebound to occur. At each passage, samples of cells were collected, RNA extracted and analyzed by RT-PCR for HCV RNA levels. B. Emergence of resistance: Con1 replicon Huh-7 cells were passaged 22 times in the absence or presence of STG-175 or selected DAAs. At each passage, sample of cells were collected, RNA extracted and analyzed by RT-PCR for HCV RNA levels. C. […] Data are expressed as number of HCV RNA copies per cell. […] Data are expressed as mean of relative light units and calculated EC50s are presented. […] E. Degree of resistance of D320E and Y321N Con1 variants: Left panel. Wild-type (WT), D320E and D320/Y321N NS5A Con1 RNA were electroporated into Huh7.5.1 cells and replication monitored over 8 days by quantifying the levels of intracellular HCV RNA. Right panel. Same as just above except that increasing concentrations of STG-175 were added at the time of the electroporation. […] STG-175 is taken as the substance from the printed x-axis title 'STG-175 in Log nM'.
We then examined the development of resistance to STG-175. GT1b Con1 sub-genomic replicon cells were grown in the presence of STG-175 (0.25 and 1 μM), telaprevir (2.5 and 10 μM), boceprevir (2.5 and 10 μM), daclatasvir 100 pM and 1 nM) or a combination of STG-175 (0.25 μM) with either telaprevir (2.5 μM), boceprevir (2.5 μM) or daclatasvir (100 pM) for 22 successive passages. At each passage, fresh drug was added and a sample of cells was taken to quantify HCV RNA levels by RT-qPCR.

[2] = tested on: wild-type Con1 GT1b replicon; test: Electroporated Con1 RNA replication in Huh7.5.1 cells (RT-qPCR), wild-type; type: cell-based; details: Hepatitis C virus
Description: (§2) The GT1b subgenomic firefly luciferase reporter replicon pFK-I389/NS3–3 was provided by R. Bartenschlager. The GT1B subgenomic NS3, NS5A and NS5B mutants were created via homologous recombination using the In-Fusion HD Cloning kit (Clontech) as we described previously. […] The in vitro transcription of wild-type and mutant Con1 RNA was accomplished using the T7 MEGAscript kit (Ambion) by following the manufacturer’s instructions. In vitro-transcribed RNAs were introduced into Huh7.5.1 cells by electroporation. Trypsinized cells were washed twice and resuspended in phosphate-buffered saline (PBS) (calcium-free and magnesium-free) at 1x 10^7 cells per ml. Ten micrograms of RNA for each mutant was mixed with 0.4 mL of cells in a 4-mm cuvette, and a Bio-Rad Gene Pulser system was used to deliver a single pulse at 0.27 kV, 100 ohms, and 960 μF. Cells were then plated in 12-well dishes. RNA transfection efficiency and HCV subgenomic replication were assessed by reverse transcription-quantitative PCR (RT-qPCR) and presented as genome equivalents (GE) per microgram of total RNA as described previously. We measured by RT-qPCR the replication of wild-type, STG-175-, NS5Ai-, NS3i- and NS5Bi-resistant mutants in the presence of increasing concentrations of SGT-175, daclatasvir, telaprevir, boceprevir and sofosbuvir over a period of 8 days.
as §1
To determine whether the D320E and Y321N substitutions truly render HCV resistant to STG-175, they were introduced into wild-type Con1 replicon as we described previously. Introduction of the substitutions was verified by sequencing. In vitro-transcribed wild-type, D320E and D320E/Y321N HCV RNAs were then electroporated into Huh7.5.1 cells and viral replication assessed by RT-qPCR and presented as GE per microgram of total RNA as we described previously. […] We then analyzed the replication of wild-type, D320E and D320E/Y321N in the presence of increasing concentrations of SGT-175 over a period of 8 days.
Fig 5 Cross-resistance analyses.

[3] = tested on: D320E NS5A Con1 GT1b replicon; test: microbe, parasite or virus in culture; type: cell-based, hepatitis C virus; details: Hepatitis C virus, GT1B
Description: as §2
(§3) D320E and D320E/Y321N NS5A substitutions were introduced into wild-type Con1 GT1 replicon as we described previously. Con1-NS5A-D320E, and Con1-NS5A-D320E/Y321N were generated using the following forward and reverse phosphorylated (p) primer sets, respectively: (p)[…] and (p)[…], and (p)[…] and (p)[…]. PCR products were circularized with Quick T4 DNA ligase (NEB) for 5 min and transformed into NEB 10-beta competent cells. The NS5A gene was sequenced to confirm the introduced substitutions.
as §1
(§4) To determine whether the D320E and Y321N substitutions truly render HCV resistant to STG-175, they were introduced into wild-type Con1 replicon as we described previously. Introduction of the substitutions was verified by sequencing.

[4] = tested on: D320E/Y321N NS5A Con1 GT1b replicon; test: microbe, parasite or virus in culture; type: cell-based, hepatitis C virus; details: Hepatitis C virus, GT1B
Description: as §2, §3, §1, §4

[5] = Huh-7.5.1, 192 h, read-out: EC50 GT1b WT
[6] = Huh-7.5.1, 192 h, read-out: EC50 D320E NS5A
[7] = Huh-7.5.1, 192 h, read-out: EC50 D320E/Y321N NS5A

Row | SMILES | passage at which resistance began ([1]; 100 pM) | passage at which resistance began ([1]; 1 nM) | passages until development of HCV resistance, DAA alone ("instead of" comparison) [1] | EC50 ([2]; Huh-7.5.1, read-out: EC50 wild-type replicon) | EC50 ([3]; Huh-7.5.1, read-out: EC50 D320E replicon) | EC50 ([4]; Huh-7.5.1, read-out: EC50 D320E/Y321N replicon) | EC50 [2, 5] | EC50 [3, 6] | EC50 [4, 7] | passage at which resistance began ([1]; 2.5 μM) | passage at which resistance began ([1]; 10 μM)
1 | COC(=O)N[C@H](C(=O)N1CCC[C@H]1c1nc(-c2ccc(-c3ccc(-c4c[nH]c([C@@H]5CCCN5C(=O)[C@@H](NC(=O)OC)C(C)C)n4)cc3)cc2)c[nH]1)C(C)C [daclatasvir] | 4 passage | 5 passage | 4 passages | 0.043 nM | 0.032 nM | 0.039 nM |  |  |  |  | 
2 | CC(C)OC(=O)[C@H](C)N[P@](=O)(OC[C@H]1O[C@@H](n2ccc(=O)[nH]c2=O)[C@](C)(F)[C@@H]1O)Oc1ccccc1 [sofosbuvir, reference compound] |  |  |  |  |  |  | 177 nM | 120 nM | 111 nM |  | 
3 | CCC[C@H](NC(=O)[C@@H]1[C@H]2CCC[C@H]2CN1C(=O)[C@@H](NC(=O)[C@@H](NC(=O)c1cnccn1)C1CCCCC1)C(C)(C)C)C(=O)C(=O)NC1CC1 [telaprevir] |  |  | 6 passages |  |  |  | 290 nM | 230 nM | 314 nM | 7 passage | 10 passage
